# Experimental data from the NIST ThermoML archive (doi:10.1016/j.jct.2017.07.026).
# Numbers after ± are expanded uncertainties.
# Assays:
# [1] = 298.15 K, Liquid
# [2] = mn = molality of the nth substance listed, in mol/kg; conditions: 298.15 K, 100 kPa, Liquid, Vibrating tube method
structure (smiles),measurement,setting,value
CCCCCC(C)C [2-methylheptane],mass density,"[1]; 100 kPa, Vibrating tube method",693.9 ± 1.4 kg/m3
CCCCCC(C)C [2-methylheptane] + CO,mass density,[2]; m1 = 0.1174,784.76 ± 0.33 kg/m3
same,mass density,[2]; m1 = 0.1406,784.42 ± 0.33 kg/m3
same,mass density,[2]; m1 = 0.2155,783.3 ± 0.33 kg/m3
same,mass density,[2]; m1 = 0.3711,781.09 ± 0.33 kg/m3
same,mass density,[2]; m1 = 0.4177,780.47 ± 0.33 kg/m3
same,mass density,[2]; m1 = 0.4497,780.04 ± 0.33 kg/m3
same,mass density,[2]; m1 = 0.5259,779.01 ± 0.33 kg/m3
same,mass density,[2]; m1 = 0.5815,778.29 ± 0.34 kg/m3
same,mass density,[2]; m1 = 0.639,777.54 ± 0.34 kg/m3
same,mass density,[2]; m1 = 0.7339,776.35 ± 0.34 kg/m3
CCCC(C)C [2-methylpentane],mass density,"[1]; 100 kPa, Vibrating tube method",648.48 ± 0.67 kg/m3
CCCC(C)C [2-methylpentane] + CO,mass density,[2]; m1 = 0.02577,786.15 ± 0.33 kg/m3
same,mass density,[2]; m1 = 0.09112,785.08 ± 0.33 kg/m3
same,mass density,[2]; m1 = 0.1002,784.95 ± 0.33 kg/m3
same,mass density,[2]; m1 = 0.1267,784.51 ± 0.33 kg/m3
same,mass density,[2]; m1 = 0.1833,783.59 ± 0.33 kg/m3
same,mass density,[2]; m1 = 0.2247,782.95 ± 0.33 kg/m3
same,mass density,[2]; m1 = 0.2392,782.73 ± 0.33 kg/m3
same,mass density,[2]; m1 = 0.3355,781.24 ± 0.33 kg/m3
same,mass density,[2]; m1 = 0.3506,781.02 ± 0.33 kg/m3
same,mass density,[2]; m1 = 0.3833,780.53 ± 0.33 kg/m3
same,mass density,[2]; m1 = 0.4498,779.5 ± 0.33 kg/m3
same,mass density,[2]; m1 = 0.4937,778.85 ± 0.34 kg/m3
same,mass density,[2]; m1 = 0.5032,778.68 ± 0.34 kg/m3
same,mass density,[2]; m1 = 0.5629,777.84 ± 0.34 kg/m3
same,mass density,[2]; m1 = 0.6343,776.78 ± 0.34 kg/m3
CCC(C)CC [3-methylpentane],mass density,"[1]; 100 kPa, Vibrating tube method",659.76 ± 0.68 kg/m3
CCC(C)CC [3-methylpentane] + CO,mass density,[2]; m1 = 0.02902,786.12 ± 0.33 kg/m3
same,mass density,[2]; m1 = 0.04025,785.97 ± 0.33 kg/m3
same,mass density,[2]; m1 = 0.06079,785.65 ± 0.33 kg/m3
same,mass density,[2]; m1 = 0.07925,785.37 ± 0.33 kg/m3
same,mass density,[2]; m1 = 0.1106,784.93 ± 0.33 kg/m3
same,mass density,[2]; m1 = 0.2045,783.51 ± 0.33 kg/m3
same,mass density,[2]; m1 = 0.307,782.05 ± 0.33 kg/m3
same,mass density,[2]; m1 = 0.3825,781.03 ± 0.33 kg/m3
same,mass density,[2]; m1 = 0.3944,780.81 ± 0.34 kg/m3
same,mass density,[2]; m1 = 0.4638,779.87 ± 0.33 kg/m3
same,mass density,[2]; m1 = 0.5751,778.42 ± 0.33 kg/m3
same,mass density,[2]; m1 = 0.6145,777.81 ± 0.34 kg/m3
same,mass density,[2]; m1 = 0.7207,776.46 ± 0.34 kg/m3
CCCCCCC [heptane],mass density,"[1]; 101.33 kPa, Pycnometric method",679.455 ± 0.22 kg/m3
CO [methanol],mass density,"[1]; 100 kPa, Vibrating tube method",786.57 ± 0.33 kg/m3
CO [methanol] + CCC(C)CC,mass density,[2]; m2 = 0,786.57 ± 0.33 kg/m3
CO [methanol] + CCCC(C)C,mass density,[2]; m2 = 0,786.57 ± 0.33 kg/m3
CO [methanol] + CCCCCC(C)C,mass density,[2]; m2 = 0,786.57 ± 0.33 kg/m3
Cc1ccccc1 [toluene],mass density,"[1]; 101.33 kPa, Pycnometric method",862.214 ± 0.26 kg/m3
